Data reported in ChEMBL document CHEMBL1143150, “Design of azidoproline containing gluten peptides to suppress CD4+ T-cell responses associated with celiac disease” (Bioorg Med Chem, 2008).
The source made the active and inactive calls. The rule behind the calls is not given here. Numbered stars: 1 amine (or outer) side, 2 acyl side, 3 side chain; on linkers, the order of the positions; unused ones are H or OH. Square brackets hold non-standard residues; d marks the D form. Side chains are listed from the residue outwards. Peptide text beside a SMILES is read from it. * marks the point of attachment. X3 = O=C([C@@H]1C[C@@H](n2cc(C(=O)[*:3])nn2)CN1[*:1])[*:2]; X1 = O=C([C@@H]1C[C@H](n2cc(C(=O)[*:3])nn2)CN1[*:1])[*:2]; X5 = CNC(=O)c1cn([C@@H]2C[C@@H](C(=O)[*:2])N([*:1])C2)nn1; X6 = CNC(=O)c1cn([C@H]2C[C@@H](C(=O)[*:2])N([*:1])C2)nn1; X4 = [N-]=[N+]=N[C@@H]1C[C@@H](C(=O)[*:2])N([*:1])C1; Pro(cis-4-N3) = [N-]=[N+]=N[C@@H]1CN[C@H](C(=O)O)C1; pGlu = O=C1CC[C@@H](C(=O)O)N1; X2 = NC(=O)CCCC(=O)*

Experiments:
[1] = Binding affinity to HLA-DQ2 expressed in EBV-transformed B cells; type: cell-based
T-cell = assay: Blockade of HLA-DQ2 specific human CD4+ T cell proliferation in presence of alpha-9-gluten peptide after 48 hrs; type: functional, cell-based

| IC50 [1] | IC50 ([1]; read-out: IC50) | SMILES | Activity (T-cell) |
| --- | --- | --- | --- |
| 8.6 µM | – | CC(C)C[C@H](NC(=O)[C@H](CCC(N)=O)NC(=O)[C@@H](N)CC(C)C)C(=O)N[C@@H](CCC(N)=O)C(=O)N1CCC[C@H]1C(=O)N[C@@H](Cc1ccccc1)C(=O)N1C[C@@H](N=[N+]=[N-])C[C@H]1C(=O)N[C@@H](CCC(N)=O)C(=O)N1CCC[C@H]1C(=O)N[C@@H](CCC(=O)O)C(=O)N[C@@H](CC(C)C)C(=O)N1CCC[C@H]1C(=O)N[C@@H](Cc1ccc(O)cc1)C(=O)N1CCC[C@H]1C(=O)N[C@@H](CCC(N)=O)C(=O)O | – |
| 9.4 µM | – | CC(C)C[C@H](NC(=O)CN)C(=O)N[C@@H](CCC(N)=O)C(=O)N1CCC[C@H]1C(=O)N[C@@H](Cc1ccccc1)C(=O)N1C[C@@H](N=[N+]=[N-])C[C@H]1C(=O)N[C@@H](CCC(N)=O)C(=O)N1CCC[C@H]1C(=O)N[C@@H](CCC(=O)O)C(=O)N[C@@H](CC(C)C)C(=O)N1CCC[C@H]1C(=O)N[C@@H](Cc1ccc(O)cc1)C(=O)N1CCC[C@H]1C(=O)N[C@@H](CCC(N)=O)C(=O)O (H-GLQPF[Pro(cis-4-N3)]QPELPYPQ-OH) | – |
| 6.9 µM | – | CC(C)C[C@H](NC(=O)[C@H](CCC(=O)O)NC(=O)[C@@H]1CCCN1C(=O)[C@H](CCC(N)=O)NC(=O)[C@@H]1C[C@H](N=[N+]=[N-])CN1C(=O)[C@H](Cc1ccccc1)NC(=O)[C@@H]1CCCN1C(=O)[C@H](CCC(N)=O)NC(=O)[C@@H](N)CC(C)C)C(=O)N1CCC[C@H]1C(=O)N[C@@H](Cc1ccc(O)cc1)C(=O)N1CCC[C@H]1C(=O)N[C@@H](CCC(N)=O)C(=O)O (H-LQPF[Pro(cis-4-N3)]QPELPYPQ-OH) | – |
| 17.2 µM | – | CC(C)C[C@H](NC(=O)[C@@H](N)CCC(N)=O)C(=O)N[C@@H](CCC(N)=O)C(=O)N1CCC[C@H]1C(=O)N[C@@H](Cc1ccccc1)C(=O)N1CCC[C@H]1C(=O)N[C@@H](CCC(N)=O)C(=O)N1CCC[C@H]1C(=O)N[C@@H](CCC(=O)O)C(=O)N[C@@H](CC(C)C)C(=O)N1CCC[C@H]1C(=O)N[C@@H](Cc1ccc(O)cc1)C(=O)O (H-QLQPFPQPELPY-OH) | – |
| 10.7 µM | – | CC(C)C[C@H](NC(=O)[C@@H](N)CCC(N)=O)C(=O)N[C@@H](CCC(N)=O)C(=O)N1CCC[C@H]1C(=O)N[C@@H](Cc1ccccc1)C(=O)N1C[C@@H](N=[N+]=[N-])C[C@H]1C(=O)N[C@@H](CCC(N)=O)C(=O)N1CCC[C@H]1C(=O)N[C@@H](CCC(=O)O)C(=O)N[C@@H](CC(C)C)C(=O)N1CCC[C@H]1C(=O)N[C@@H](Cc1ccc(O)cc1)C(=O)N1CCC[C@H]1C(=O)N[C@@H](CCC(N)=O)C(=O)O (H-QLQPF[Pro(cis-4-N3)]QPELPYPQ-OH) | – |
| 7.2 µM | – | CC(C)C[C@H](NC(=O)CCCC(N)=O)C(=O)N[C@@H](CCC(N)=O)C(=O)N1CCC[C@H]1C(=O)N[C@@H](Cc1ccccc1)C(=O)N1C[C@@H](N=[N+]=[N-])C[C@H]1C(=O)N[C@@H](CCC(N)=O)C(=O)N1CCC[C@H]1C(=O)N[C@@H](CCC(=O)O)C(=O)N[C@@H](CC(C)C)C(=O)N1CCC[C@H]1C(=O)N[C@@H](Cc1ccc(O)cc1)C(=O)N1CCC[C@H]1C(=O)N[C@@H](CCC(N)=O)C(=O)O (X2-LQPF[Pro(cis-4-N3)]QPELPYPQ-OH) | – |
| – | 2.4 µM | CC(C)C[C@H](NC(=O)[C@@H]1CCC(=O)N1)C(=O)N[C@@H](CCC(N)=O)C(=O)N1CCC[C@H]1C(=O)N[C@@H](Cc1ccccc1)C(=O)N1CCC[C@H]1C(=O)N[C@@H](CCC(N)=O)C(=O)N1C[C@@H](N=[N+]=[N-])C[C@H]1C(=O)N[C@@H](CCC(=O)O)C(=O)N[C@@H](CC(C)C)C(=O)N1CCC[C@H]1C(=O)N[C@@H](Cc1ccc(O)cc1)C(=O)N1CCC[C@H]1C(=O)N[C@@H](CCC(N)=O)C(=O)O ([pGlu]LQPFPQ[Pro(cis-4-N3)]ELPYPQ-OH) | – |
| – | 2.3 µM | COC(=O)[C@H](Cc1ccccc1)NC(=O)c1cn([C@H]2C[C@@H](C(=O)N[C@@H](CCC(=O)O)C(=O)N[C@@H](CC(C)C)C(=O)N3CCC[C@H]3C(=O)N[C@@H](Cc3ccc(O)cc3)C(=O)N3CCC[C@H]3C(=O)N[C@@H](CCC(N)=O)C(=O)O)N(C(=O)[C@H](CCC(N)=O)NC(=O)[C@@H]3CCCN3C(=O)[C@H](Cc3ccccc3)NC(=O)[C@@H]3CCCN3C(=O)[C@H](CCC(N)=O)NC(=O)[C@H](CC(C)C)NC(=O)[C@@H]3CCC(=O)N3)C2)nn1 ([pGlu]LQPFPQ[X1]([Phe-OMe])ELPYPQ-OH) | – |
| – | 3.2 µM | COC(=O)[C@H](Cc1ccccc1)NC(=O)c1cn([C@@H]2C[C@@H](C(=O)N[C@@H](CCC(=O)O)C(=O)N[C@@H](CC(C)C)C(=O)N3CCC[C@H]3C(=O)N[C@@H](Cc3ccc(O)cc3)C(=O)N3CCC[C@H]3C(=O)N[C@@H](CCC(N)=O)C(=O)O)N(C(=O)[C@H](CCC(N)=O)NC(=O)[C@@H]3CCCN3C(=O)[C@H](Cc3ccccc3)NC(=O)[C@@H]3CCCN3C(=O)[C@H](CCC(N)=O)NC(=O)[C@H](CC(C)C)NC(=O)[C@@H]3CCC(=O)N3)C2)nn1 ([pGlu]LQPFPQ[X3]([Phe-OMe])ELPYPQ-OH) | – |
| – | 2.3 µM | CC(C)C[C@H](NC(=O)[C@@H]1CCC(=O)N1)C(=O)N[C@@H](CCC(N)=O)C(=O)N1CCC[C@H]1C(=O)N[C@@H](Cc1ccccc1)C(=O)N1CCC[C@H]1C(=O)N[C@@H](CCC(N)=O)C(=O)N1C[C@H](N=[N+]=[N-])C[C@H]1C(=O)N[C@@H](CCC(=O)O)C(=O)N[C@@H](CC(C)C)C(=O)N1CCC[C@H]1C(=O)N[C@@H](Cc1ccc(O)cc1)C(=O)N1CCC[C@H]1C(=O)N[C@@H](CCC(N)=O)C(=O)O ([pGlu]LQPFPQ[X4]ELPYPQ-OH) | – |
| – | 5.8 µM | CNC(=O)c1cn([C@@H]2C[C@@H](C(=O)N[C@@H](CCC(=O)O)C(=O)N[C@@H](CC(C)C)C(=O)N3CCC[C@H]3C(=O)N[C@@H](Cc3ccc(O)cc3)C(=O)N3CCC[C@H]3C(=O)N[C@@H](CCC(N)=O)C(=O)O)N(C(=O)[C@H](CCC(N)=O)NC(=O)[C@@H]3CCCN3C(=O)[C@H](Cc3ccccc3)NC(=O)[C@@H]3CCCN3C(=O)[C@H](CCC(N)=O)NC(=O)[C@H](CC(C)C)NC(=O)[C@@H]3CCC(=O)N3)C2)nn1 ([pGlu]LQPFPQ[X5]ELPYPQ-OH) | – |
| – | 9 µM | CNC(=O)c1cn([C@H]2C[C@@H](C(=O)N[C@@H](CCC(=O)O)C(=O)N[C@@H](CC(C)C)C(=O)N3CCC[C@H]3C(=O)N[C@@H](Cc3ccc(O)cc3)C(=O)N3CCC[C@H]3C(=O)N[C@@H](CCC(N)=O)C(=O)O)N(C(=O)[C@H](CCC(N)=O)NC(=O)[C@@H]3CCCN3C(=O)[C@H](Cc3ccccc3)NC(=O)[C@@H]3CCCN3C(=O)[C@H](CCC(N)=O)NC(=O)[C@H](CC(C)C)NC(=O)[C@@H]3CCC(=O)N3)C2)nn1 ([pGlu]LQPFPQ[X6]ELPYPQ-OH) | – |
| – | 3.2 µM | CC(C)C[C@H](NC(=O)[C@@H]1CCC(=O)N1)C(=O)N[C@@H](CCC(N)=O)C(=O)N1CCC[C@H]1C(=O)N[C@@H](Cc1ccccc1)C(=O)N1C[C@@H](N=[N+]=[N-])C[C@H]1C(=O)N[C@@H](CCC(N)=O)C(=O)N1CCC[C@H]1C(=O)N[C@@H](CCC(=O)O)C(=O)N[C@@H](CC(C)C)C(=O)N1CCC[C@H]1C(=O)N[C@@H](Cc1ccc(O)cc1)C(=O)N1CCC[C@H]1C(=O)N[C@@H](CCC(N)=O)C(=O)O ([pGlu]LQPF[Pro(cis-4-N3)]QPELPYPQ-OH) | – |
| – | 1.3 µM | COC(=O)[C@H](Cc1ccccc1)NC(=O)c1cn([C@H]2C[C@@H](C(=O)N[C@@H](CCC(N)=O)C(=O)N3CCC[C@H]3C(=O)N[C@@H](CCC(=O)O)C(=O)N[C@@H](CC(C)C)C(=O)N3CCC[C@H]3C(=O)N[C@@H](Cc3ccc(O)cc3)C(=O)N3CCC[C@H]3C(=O)N[C@@H](CCC(N)=O)C(=O)O)N(C(=O)[C@H](Cc3ccccc3)NC(=O)[C@@H]3CCCN3C(=O)[C@H](CCC(N)=O)NC(=O)[C@H](CC(C)C)NC(=O)[C@@H]3CCC(=O)N3)C2)nn1 ([pGlu]LQPF[X1]([Phe-OMe])QPELPYPQ-OH) | Active |
| – | 29.2 µM | COC(=O)[C@H](Cc1ccccc1)NC(=O)c1cn([C@@H]2C[C@@H](C(=O)N[C@@H](CCC(N)=O)C(=O)N3CCC[C@H]3C(=O)N[C@@H](CCC(=O)O)C(=O)N[C@@H](CC(C)C)C(=O)N3CCC[C@H]3C(=O)N[C@@H](Cc3ccc(O)cc3)C(=O)N3CCC[C@H]3C(=O)N[C@@H](CCC(N)=O)C(=O)O)N(C(=O)[C@H](Cc3ccccc3)NC(=O)[C@@H]3CCCN3C(=O)[C@H](CCC(N)=O)NC(=O)[C@H](CC(C)C)NC(=O)[C@@H]3CCC(=O)N3)C2)nn1 ([pGlu]LQPF[X3]([Phe-OMe])QPELPYPQ-OH) | – |
| – | 5.5 µM | CC(C)C[C@H](NC(=O)[C@@H]1CCC(=O)N1)C(=O)N[C@@H](CCC(N)=O)C(=O)N1CCC[C@H]1C(=O)N[C@@H](Cc1ccccc1)C(=O)N1C[C@H](N=[N+]=[N-])C[C@H]1C(=O)N[C@@H](CCC(N)=O)C(=O)N1CCC[C@H]1C(=O)N[C@@H](CCC(=O)O)C(=O)N[C@@H](CC(C)C)C(=O)N1CCC[C@H]1C(=O)N[C@@H](Cc1ccc(O)cc1)C(=O)N1CCC[C@H]1C(=O)N[C@@H](CCC(N)=O)C(=O)O ([pGlu]LQPF[X4]QPELPYPQ-OH) | – |
| – | 5.8 µM | CNC(=O)c1cn([C@@H]2C[C@@H](C(=O)N[C@@H](CCC(N)=O)C(=O)N3CCC[C@H]3C(=O)N[C@@H](CCC(=O)O)C(=O)N[C@@H](CC(C)C)C(=O)N3CCC[C@H]3C(=O)N[C@@H](Cc3ccc(O)cc3)C(=O)N3CCC[C@H]3C(=O)N[C@@H](CCC(N)=O)C(=O)O)N(C(=O)[C@H](Cc3ccccc3)NC(=O)[C@@H]3CCCN3C(=O)[C@H](CCC(N)=O)NC(=O)[C@H](CC(C)C)NC(=O)[C@@H]3CCC(=O)N3)C2)nn1 ([pGlu]LQPF[X5]QPELPYPQ-OH) | – |
| – | 4.6 µM | CNC(=O)c1cn([C@H]2C[C@@H](C(=O)N[C@@H](CCC(N)=O)C(=O)N3CCC[C@H]3C(=O)N[C@@H](CCC(=O)O)C(=O)N[C@@H](CC(C)C)C(=O)N3CCC[C@H]3C(=O)N[C@@H](Cc3ccc(O)cc3)C(=O)N3CCC[C@H]3C(=O)N[C@@H](CCC(N)=O)C(=O)O)N(C(=O)[C@H](Cc3ccccc3)NC(=O)[C@@H]3CCCN3C(=O)[C@H](CCC(N)=O)NC(=O)[C@H](CC(C)C)NC(=O)[C@@H]3CCC(=O)N3)C2)nn1 ([pGlu]LQPF[X6]QPELPYPQ-OH) | – |
